In US20100119483A1, “PEPTIDE VIRAL ENTRY INHIBITORS” (Schering Corporation, priority 2004, published 2010):
Values joined by “and” are separate entries in the source; they are usually repeats but may differ in a detail not shown here. Equal entries are not always repeated.

Tested on: HCV pseudoparticles
Assay: HCV pseudoparticle (HCVpp) entry assay in Huh7 hepatoma cells, luciferase readout
Format: cell-based, hepatitis C virus
Conditions: for % of control at ~30 uM: percentage of hepatitis C virus cellular entry at 30 μM peptide vs uninhibited control; for viral entry as a percentage of the uninhibited control: HCV entry, duplicates
Procedure: HCV pseudotype particle generation. Single cycle HCV pseudoparticles are composed of a replication-defective HIV genome and HCV envelope proteins. These pseudoparticles were made by transfecting 293T cells with 5 ug of each pNL43E-R-luc (Chen et al., J. Virol. 68(2):654-60 (1994)) and plasmid expressing HCV envelope proteins pCMV/E1-2 with profection transfection kit from Promega (Madison, Wis.). The medium was refreshed 12-24 hours after transfection and supernatant was collected 48 hours after transfection. The supernatant from a transfection of only pNL43E-R-luc was used each time as a control for non specific entry events.
Infection of hepatoma cell lines with HCV pseudotype particles and screen for inhibitory peptides. The hepatoma cells, Huh7, was seeded at 8000 cells in 90 ul medium in 96-well plate. In the case of the inhibitor screen, the inhibitor was incubated with cells for one hour at 37° C. and then 50 ul viral supernatant was added to the cells 24 hours after seeding. The viral stock was pre-tittered and diluted to yield approximately 10,000 to 20,000 RLU. The cells were incubated at 37° C. with 5% CO2 for additional 72 hours and were harvested for luciferase assay. Peptide stocks were prepared in 100% DMSO at 10 mg/ml and were first screened at 100 ug/ml and then a dose responsive curve was generated with 10 points 3-fold titration starting from 100 ug/ml.
The peptide of SEQ ID NO: 77 was first serial diluted by the factor of 3 in 100% DMSO from 100 ug/ml and then transferred to the assay plates at 100-fold dilution. The peptide was first incubated with cells and HCVpp (A) or HIVpp (B), respectively, for 30 minutes at […] in this experiment. Then, the medium containing the peptide was removed from the cells and virus with peptide was added to the cells. Cells were incubated for 72 hours and then were harvested for luciferase assay. Two separate trials were performed.
In addition, the peptide of SEQ ID NO: 77 was mutated at several positions and assayed in the HCV entry assay discussed above. […] The assays were performed essentially as described above.

[1] = 0.1 nM of peptide (printed for three rows), two values per peptide and row
[2] = 0.3 nM of peptide, two values per peptide
[3] = 1 nM of peptide, two values per peptide
[4] = 3 nM of peptide, two values per peptide
[5] = 10 nM of peptide, two values per peptide
[6] = 30 nM of peptide, two values per peptide
[7] = 100 nM of peptide, two values per peptide
[8] = 300 nM of peptide, two values per peptide
[9] = 10000 nM of peptide, two values per peptide
[10] = 30000 nM of peptide, two values per peptide

A-I-A-W-E-Y-V-L-L-L-F-L-L (AIAWEYVLLLFLL; HCV peptide) [SEQ ID NO: 88, Ala-scan]
% control (HCVpp entry), alanine scanning [1]: 96 % control and 85 % control and 87 % control and 108 % control and 109 % control
% control (HCVpp entry), alanine scanning [2]: 91 % control and 101 % control
% control (HCVpp entry), alanine scanning [3]: 100 % control and 69 % control
% control (HCVpp entry), alanine scanning [4]: 81 % control and 93 % control
% control (HCVpp entry), alanine scanning [5]: 56 % control and 60 % control
% control (HCVpp entry), alanine scanning [6]: 53 % control and 66 % control
% control (HCVpp entry), alanine scanning [7]: 37 % control and 57 % control
% control (HCVpp entry), alanine scanning [8]: 42 % control and 45 % control
% control (HCVpp entry), alanine scanning [9]: 27 % control and 32 % control
% of control at ~30 uM: 9%

A-I-K-W-E-Y-V-L-L-L-F-L-K [SEQ ID NO: 137]
% control (HCVpp entry), lysine scanning [1]: 72 % control and 123 % control and 80 % control and 82 % control and 103 % control and 135 % control
% control (HCVpp entry), lysine scanning [2]: 58 % control and 92 % control
% control (HCVpp entry), lysine scanning [3]: 80 % control and 106 % control
% control (HCVpp entry), lysine scanning [4]: 82 % control and 97 % control
% control (HCVpp entry), lysine scanning [5]: 100 % control and 89 % control
% control (HCVpp entry), lysine scanning [6]: 78 % control and 94 % control
% control (HCVpp entry), lysine scanning [7]: 68 % control and 74 % control
% control (HCVpp entry), lysine scanning [8]: 54 % control and 77 % control
% control (HCVpp entry), lysine scanning [9]: 23 % control and 28 % control

A-I-K-W-E-Y-V-L-L-L-F-L-P [SEQ ID NO: 127]
% control (HCVpp entry), proline scanning [1]: 90 % control and 86 % control and 75 % control and 122 % control and 113 % control
% control (HCVpp entry), proline scanning [2]: 84 % control and 81 % control
% control (HCVpp entry), proline scanning [3]: 71 % control and 85 % control
% control (HCVpp entry), proline scanning [4]: 66 % control and 53 % control
% control (HCVpp entry), proline scanning [5]: 102 % control and 74 % control
% control (HCVpp entry), proline scanning [6]: 78 % control and 83 % control
% control (HCVpp entry), proline scanning [7]: 77 % control and 74 % control
% control (HCVpp entry), proline scanning [8]: 63 % control and 72 % control
% control (HCVpp entry), proline scanning [9]: 29 % control and 27 % control
% control (HCVpp entry), proline scanning [10]: 57 % control and 29 % control

A-I-K-W-A-Y-V-L-L-L-F-L-L (AIKWAYVLLLFLL; HCV peptide) [SEQ ID NO: 90, Ala-scan]
% control (HCVpp entry), alanine scanning [1]: 105 % control and 98 % control and 82 % control and 106 % control and 116 % control and 96 % control
% control (HCVpp entry), alanine scanning [2]: 73 % control and 94 % control
% control (HCVpp entry), alanine scanning [3]: 66 % control and 98 % control
% control (HCVpp entry), alanine scanning [4]: 106 % control and 81 % control
% control (HCVpp entry), alanine scanning [5]: 66 % control and 46 % control
% control (HCVpp entry), alanine scanning [6]: 69 % control and 63 % control
% control (HCVpp entry), alanine scanning [7]: 51 % control and 43 % control
% control (HCVpp entry), alanine scanning [8]: 55 % control
% of control at ~30 uM: 13%

A-I-K-W-E-Y-A-L-L-L-F-L-L (AIKWEYALLLFLL; HCV peptide) [SEQ ID NO: 92, Ala-scan]
% control (HCVpp entry), alanine scanning [1]: 73 % control and 115 % control and 82 % control and 89 % control and 99 % control and 130 % control
% control (HCVpp entry), alanine scanning [2]: 85 % control and 61 % control
% control (HCVpp entry), alanine scanning [3]: 90 % control and 80 % control
% control (HCVpp entry), alanine scanning [4]: 68 % control and 99 % control
% control (HCVpp entry), alanine scanning [5]: 82 % control and 59 % control
% control (HCVpp entry), alanine scanning [6]: 42 % control and 64 % control
% control (HCVpp entry), alanine scanning [7]: 32 % control and 25 % control
% control (HCVpp entry), alanine scanning [8]: 21 % control and 30 % control
% of control at ~30 uM: 17%

G-I-K-W-E-Y-V-L-L-L-F-L-L [SEQ ID NO: 82]
% control (HCVpp entry), glycine scanning (0.00003 uM of peptide, two values per peptide and row): 74 % control and 88 % control and 118 % control and 120 % control
% control (HCVpp entry), glycine scanning (0.0001 uM of peptide, two values per peptide): 62 % control and 61 % control
% control (HCVpp entry), glycine scanning (0.0003 uM of peptide, two values per peptide): 68 % control and 71 % control
% control (HCVpp entry), glycine scanning (0.001 uM of peptide, two values per peptide): 90 % control and 66 % control
% control (HCVpp entry), glycine scanning (0.003 uM of peptide, two values per peptide): 71 % control and 80 % control
% control (HCVpp entry), glycine scanning (0.01 uM of peptide, two values per peptide): 53 % control and 43 % control
% control (HCVpp entry), glycine scanning (0.03 uM of peptide, two values per peptide): 46 % control and 41 % control
% control (HCVpp entry), glycine scanning (0.1 uM of peptide, two values per peptide): 33 % control and 27 % control
% control (HCVpp entry), glycine scanning (0.3 uM of peptide, two values per peptide): 33 % control and 25 % control
% control (HCVpp entry), glycine scanning (10 uM of peptide, two values per peptide): 33 % control and 29 % control
% control (HCVpp entry), glycine scanning (30 uM of peptide, two values per peptide): 18 % control and 29 % control
% of control at ~30 uM: 22%

F-A-I-K-W-E-Y-V-L-L-L-F-L-L [SEQ ID NO: 105]
HCVpp % inh (truncated peptides tested at 50 uM in 1% DMSO): 95%

LLFLLLVYEWKIA [retro-inverso]
viral entry as a percentage of the uninhibited control (0.1 nM of peptide (three lines)): 97%
viral entry as a percentage of the uninhibited control (0.3 nM of peptide, 0.0003 µM): 91% and 81% and 74% and 99% and 126% and 117%
viral entry as a percentage of the uninhibited control (1 nM of peptide, 0.001 µM): 83% and 72% and 91% and 115% and 106%
viral entry as a percentage of the uninhibited control (3 nM of peptide, 0.003 µM): 88% and 68% and 78% and 92% and 86% and 98%
viral entry as a percentage of the uninhibited control (10 nM of peptide, 0.01 µM): 66% and 100% and 76% and 84% and 128% and 104%
viral entry as a percentage of the uninhibited control (30 nM of peptide, 0.03 µM): 68% and 62% and 76% and 113% and 121% and 110%
viral entry as a percentage of the uninhibited control (30000 nM of peptide, 30 µM): 107% and 87% and 103% and 125% and 95%
activity compared to the wild type 13-mer peptide (HCVpp entry inhibition, in words): completely lost activity

A-I-K-W-E-Y-V-L-L-L-F-K-L (AIKWEYVLLLFKL; HCV peptide) [SEQ ID NO: 136]
% control (HCVpp entry), lysine scanning [1]: 67 % control and 81 % control and 82 % control and 94 % control and 116 % control and 108 % control
% control (HCVpp entry), lysine scanning [2]: 103 % control and 70 % control
% control (HCVpp entry), lysine scanning [3]: 71 % control and 90 % control
% control (HCVpp entry), lysine scanning [4]: 76 % control and 98 % control
% control (HCVpp entry), lysine scanning [5]: 80 % control and 71 % control
% control (HCVpp entry), lysine scanning [6]: 65 % control and 84 % control
% control (HCVpp entry), lysine scanning [7]: 98 % control and 84 % control
% control (HCVpp entry), lysine scanning [8]: 81 % control and 84 % control
% control (HCVpp entry), lysine scanning [9]: 34 % control and 68 % control

A-I-K-W-E-Y-V-L-L-L-K-L-L (AIKWEYVLLLKLL; HCV peptide) [SEQ ID NO: 135]
% control (HCVpp entry), lysine scanning [2]: 72 % control and 99 % control
% control (HCVpp entry), lysine scanning [3]: 76 % control and 84 % control
% control (HCVpp entry), lysine scanning [4]: 67 % control and 74 % control
% control (HCVpp entry), lysine scanning [5]: 79 % control and 104 % control
% control (HCVpp entry), lysine scanning [6]: 90 % control and 89 % control
% control (HCVpp entry), lysine scanning [7]: 75 % control and 107 % control
% control (HCVpp entry), lysine scanning [8]: 87 % control and 70 % control
% control (HCVpp entry), lysine scanning [9]: 57 % control and 43 % control
% control (HCVpp entry), lysine scanning [10]: 37 % control and 29 % control
